One series has as its target T1, OATP2B1 (Homo sapiens, UniProt O94956).
T1 sequence (O94956 1-709): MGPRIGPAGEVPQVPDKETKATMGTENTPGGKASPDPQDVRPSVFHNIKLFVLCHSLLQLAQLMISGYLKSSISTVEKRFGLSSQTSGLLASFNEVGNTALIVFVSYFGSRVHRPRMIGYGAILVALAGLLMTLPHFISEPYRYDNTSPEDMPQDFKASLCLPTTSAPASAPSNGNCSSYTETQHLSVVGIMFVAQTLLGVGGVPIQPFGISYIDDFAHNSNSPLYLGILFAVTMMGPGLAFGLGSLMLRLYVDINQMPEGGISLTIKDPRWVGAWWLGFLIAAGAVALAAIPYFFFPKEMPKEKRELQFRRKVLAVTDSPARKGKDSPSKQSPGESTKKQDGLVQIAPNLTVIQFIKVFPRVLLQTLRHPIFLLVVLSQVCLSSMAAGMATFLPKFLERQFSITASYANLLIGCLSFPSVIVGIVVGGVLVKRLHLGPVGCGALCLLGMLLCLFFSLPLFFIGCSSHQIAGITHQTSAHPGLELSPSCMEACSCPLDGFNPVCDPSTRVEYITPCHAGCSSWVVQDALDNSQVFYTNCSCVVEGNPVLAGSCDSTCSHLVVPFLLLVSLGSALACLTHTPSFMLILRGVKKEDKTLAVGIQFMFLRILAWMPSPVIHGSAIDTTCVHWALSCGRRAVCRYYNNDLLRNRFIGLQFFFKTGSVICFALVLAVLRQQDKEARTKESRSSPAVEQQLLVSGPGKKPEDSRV
In words: Uptake (intracellular accumulation) kinetics in ABCC2/OATP2B1 double-transfected MDCKII cells. It is filed as in vitro ADME. More on the design: expressed in transfected cells; host or cells: MDCKII (canine kidney) ABCC2 single-transfectant, further transfected with pcDNA3.1/Hygro(-)-OATP2B1. The conditions noted are these: human, MDCKII cells double-transfected with ABCC2 and OATP2B1, pH 7.3; cell line ABCC2-OATP2B1; intracellular accumulation of 3H-labeled substrate; 5-min uptake. The procedure: (a) MDCKII cells were grown on ThinCerts (24-mm diameter, pore size 0.4 μm, pore density 1×10^8 per cm^2) and induced with butyrate as mentioned above. […] The ^3H-labeled substrate was dissolved in transport buffer and added either to the apical or to the basolateral compartment at the concentration indicated. After incubation at 37° C., the radioactivity in the opposite compartment was measured by sampling aliquots from the apical or basolateral compartment. Cells were washed 2 times with ice-cold transport buffer containing 0.5% bovine serum albumin and 3 times in ice-cold transport buffer. Intracellular accumulation of radioactivity was calculated by lyzing the cells with 0.2% sodium dodecyl sulfate (SDS) and measuring the radioactivity in the lysate.

In another series the target is T2, OATP1B3 (Homo sapiens, UniProt Q9NPD5).
T2 sequence (Q9NPD5 1-702): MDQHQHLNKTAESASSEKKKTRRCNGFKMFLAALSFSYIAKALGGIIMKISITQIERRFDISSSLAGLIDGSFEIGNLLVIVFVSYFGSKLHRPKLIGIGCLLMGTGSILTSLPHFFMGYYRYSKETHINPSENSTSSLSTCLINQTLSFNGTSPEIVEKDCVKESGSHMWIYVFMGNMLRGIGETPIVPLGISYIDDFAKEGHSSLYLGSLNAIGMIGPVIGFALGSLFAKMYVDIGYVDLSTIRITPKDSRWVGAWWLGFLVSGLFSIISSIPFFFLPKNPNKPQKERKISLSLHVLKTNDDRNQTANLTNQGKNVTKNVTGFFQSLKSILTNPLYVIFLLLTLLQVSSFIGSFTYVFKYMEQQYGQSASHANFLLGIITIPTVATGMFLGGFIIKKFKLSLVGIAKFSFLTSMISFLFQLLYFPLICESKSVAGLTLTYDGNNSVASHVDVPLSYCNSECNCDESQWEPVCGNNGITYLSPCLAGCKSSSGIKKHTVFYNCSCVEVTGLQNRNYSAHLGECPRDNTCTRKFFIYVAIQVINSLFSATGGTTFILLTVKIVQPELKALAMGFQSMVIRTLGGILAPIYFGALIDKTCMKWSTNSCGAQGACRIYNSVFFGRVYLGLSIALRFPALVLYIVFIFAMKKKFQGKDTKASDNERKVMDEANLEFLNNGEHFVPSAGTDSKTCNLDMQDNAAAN
The experiment in a line: Uptake (intracellular accumulation) kinetics in ABCC2/OATP1B3 double-transfected MDCKII cells. It is filed as in vitro ADME. More on the design: expressed in transfected cells; host or cells: MDCKII (canine kidney), co-expressing ABCC2. The conditions noted are these: cell line ABCC2-OATP1B3, intracellular accumulation of 3H-labeled substrate. The method, then: (§1) (a) MDCKII cells were grown on ThinCerts (24-mm diameter, pore size 0.4 μm, pore density 1×10^8 per cm^2) and induced with butyrate as mentioned above. The cells were washed in prewarmed (37° C.) transport buffer (142 mM NaCl, 5 mM KCl, 1 mM KH2PO4, 1.2 mM MgSO4, 1.5 mM CaCl2, 5 mM glucose, and 12.5 mM HEPES, pH 7.3). The ^3H-labeled substrate was dissolved in transport buffer and added either to the apical or to the basolateral compartment at the concentration indicated. After incubation at 37° C., the radioactivity in the opposite compartment was measured by sampling aliquots from the apical or basolateral compartment. Cells were washed 2 times with ice-cold transport buffer containing 0.5% bovine serum albumin and 3 times in ice-cold transport buffer. Intracellular accumulation of radioactivity was calculated by lyzing the cells with 0.2% sodium dodecyl sulfate (SDS) and measuring the radioactivity in the lysate.

Series [1] has as its target T3, ABCC2 (Homo sapiens, UniProt Q92887). The note with it: MDCK. The procedure: ATP-dependent transport into inside-out membrane vesicles prepared from MDCKII-ABCC2 single-transfectants (ABCC2, closed circles) or vector-transfected MDCKII cells (Control, open circles) was measured for 1, 3, and 5 min as described in Example 1. Data are means ±SD determined from 3 measurements.
Transport of estrone 3-sulfate into inside-out membrane vesicles was performed using nick spin columns as described (Keppler et al., 1998). Membrane vesicles were prepared from MDCKII vector-transfected control cells and MDCKII-ABCC2 single transfected cells described by Cui et al. (1999) and Letschert et al. (2005). ATP-dependent transport was determined by subtracting values obtained in the presence of 5′-AMP from those in the presence of ATP.

Series [2] relates to OATP1B1, OATP1B3, and OATP2B1. The experiment in a line: Uptake (intracellular accumulation) kinetics in ABCC2/OATP1B1/1B3/2B1 quadruple-transfected MDCKII cells. It is filed as in vitro ADME, human. The conditions noted are these: human, pH 7.3, cell line ABCC2-OATP1B1/1B3/2B1 (quadruple-transfectant); intracellular accumulation of 3H-labeled substrate; read-out: Km. The method, then: as §1

Series [3] deals with ABCC2 together with OATP1B1, OATP1B3, and OATP2B1. The experiment in a line: Transport studies (transcellular transport, intracellular accumulation) in all double- and quadruple-transfected MDCKII cells. It is filed as in vitro ADME, human. The conditions noted are these: all 3 double-transfected and quadruple-transfected MDCKII cells, 5 μM BSP 15 min, 1 μM E3S, 0.5 μM Fluva in basolateral compartment. The method, then: as §1
(b) Transport assays were further carried out as described in Cui et al., Mol. Pharmacol. 60 (2001), 934-43. The apical localization of MRP2 and the basolateral expression of OATP1B1, OATP1B3 and OATP2B1 in the quadruple transfectants was shown by the generation of polar proliferation of the cells after initial growing on Transwell membrane inserts (24 mm diameter, […] pore size, Corning Costar) and by use of confocal laser scanning microscopy. […]

For series [4], the target named is T3, ABCC2. Also on record: expressed in transfected cells; host or cells: MDCKII-ABCC2 single-transfected cells (membrane vesicles). The note with it: BSP: Cui et al., 2001; CCK-8: Letschert et al., 2005; cited from earlier work.
Substrate in series [5]: O=C1OC(c2ccc(O)c(S(=O)(=O)O)c2)(c2ccc(O)c(S(=O)(=O)O)c2)c2c(Br)c(Br)c(Br)c(Br)c21
In words: Uptake (intracellular accumulation) kinetics in ABCC2/OATP2B1 double-transfected MDCKII cells. The note with it: other: cell line ABCC2-OATP2B1; intracellular accumulation of 3H-labeled substrate; 5-min uptake; pH 7.3; 37.0 °C. It is filed as in vitro ADME, human.

Substrate in series [6]: CC(C)n1c(/C=C/C(O)CC(O)CC(=O)O)c(-c2ccc(F)cc2)c2ccccc21
In words: cells, lysate or membranes named. The note with it: intracellular accumulation of 3H-labeled substrate, 5-min uptake, pH 7.3, 37.0 °C.

Substrate in series [7]: O=C1OC(c2ccc(O)c(S(=O)(=O)O)c2)(c2ccc(O)c(S(=O)(=O)O)c2)c2c(Br)c(Br)c(Br)c(Br)c21
The experiment in a line: Uptake (intracellular accumulation) kinetics in ABCC2/OATP1B1 double-transfected MDCKII cells. It is filed as in vitro ADME, human. The conditions noted are these: other: cell line ABCC2-OATP1B1; intracellular accumulation of 3H-labeled substrate; 5-min uptake; pH 7.3; 37.0 °C.

A word on the Km: it is the substrate concentration at which the rate is half of its maximum.

T3 sequence (Q92887 whole entry): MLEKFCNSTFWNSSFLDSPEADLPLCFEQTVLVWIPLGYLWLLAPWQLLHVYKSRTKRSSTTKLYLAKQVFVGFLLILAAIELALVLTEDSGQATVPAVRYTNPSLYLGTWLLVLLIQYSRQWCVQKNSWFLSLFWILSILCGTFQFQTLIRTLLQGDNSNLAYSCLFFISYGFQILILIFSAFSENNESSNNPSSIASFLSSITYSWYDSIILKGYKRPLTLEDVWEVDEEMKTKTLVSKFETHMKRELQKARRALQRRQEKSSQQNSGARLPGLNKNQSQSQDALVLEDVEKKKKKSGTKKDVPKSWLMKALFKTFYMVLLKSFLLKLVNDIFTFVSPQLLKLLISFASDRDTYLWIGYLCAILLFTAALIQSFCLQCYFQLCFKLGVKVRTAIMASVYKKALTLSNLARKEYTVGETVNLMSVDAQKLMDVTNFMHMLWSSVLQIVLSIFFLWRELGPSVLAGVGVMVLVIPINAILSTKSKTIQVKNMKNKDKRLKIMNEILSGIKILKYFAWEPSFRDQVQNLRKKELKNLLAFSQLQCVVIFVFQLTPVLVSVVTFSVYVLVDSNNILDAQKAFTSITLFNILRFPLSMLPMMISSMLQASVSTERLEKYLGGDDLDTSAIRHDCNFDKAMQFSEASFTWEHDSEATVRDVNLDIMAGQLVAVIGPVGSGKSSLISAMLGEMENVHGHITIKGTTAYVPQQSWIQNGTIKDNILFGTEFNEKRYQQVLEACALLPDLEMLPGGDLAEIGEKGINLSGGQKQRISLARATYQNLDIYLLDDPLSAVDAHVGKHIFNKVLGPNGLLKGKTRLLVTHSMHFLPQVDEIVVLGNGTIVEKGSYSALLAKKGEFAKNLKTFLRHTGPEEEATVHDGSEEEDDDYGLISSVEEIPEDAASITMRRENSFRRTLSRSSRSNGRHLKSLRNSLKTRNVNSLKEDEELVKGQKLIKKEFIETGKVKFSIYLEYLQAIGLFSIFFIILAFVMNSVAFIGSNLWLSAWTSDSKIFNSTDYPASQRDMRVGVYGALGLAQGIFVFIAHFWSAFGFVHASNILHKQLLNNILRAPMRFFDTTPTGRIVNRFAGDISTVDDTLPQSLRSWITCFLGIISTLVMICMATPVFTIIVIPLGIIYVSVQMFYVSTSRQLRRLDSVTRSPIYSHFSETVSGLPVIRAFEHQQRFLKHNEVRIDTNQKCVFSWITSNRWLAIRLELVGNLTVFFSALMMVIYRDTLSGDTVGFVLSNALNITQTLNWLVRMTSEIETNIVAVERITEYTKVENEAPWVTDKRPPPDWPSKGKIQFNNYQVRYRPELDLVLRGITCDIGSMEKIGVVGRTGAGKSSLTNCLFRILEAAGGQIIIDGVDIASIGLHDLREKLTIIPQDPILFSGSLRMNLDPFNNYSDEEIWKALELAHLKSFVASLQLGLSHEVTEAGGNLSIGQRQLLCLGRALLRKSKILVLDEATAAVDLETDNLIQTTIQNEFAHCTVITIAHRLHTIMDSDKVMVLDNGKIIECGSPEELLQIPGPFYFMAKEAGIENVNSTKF

As for `CC(C)n1c(/C=C/C(O)CC(O)CC(=O)O)c(-c2ccc(F)cc2)c2ccccc21` (stereo not shown) [Fluvastatin, fluvastatin], the Km at 5 min worked out at 0.7 µM on OATP2B1; 7 ± 2.5 µM at OATP1B3 (human, MDCKII cells double-transfected with ABCC2 and OATP1B3, pH 7.3, 5-min uptake, read-out: Km). Also, the Vmax on OATP1B3 is listed as 53.6 ± 11.0 pmol · mg protein^−1 · min^−1. In addition, the “substrate for ABCC2” value on ABCC2 [1] (human) is “not a substrate for ABCC2”. Moreover, in series [2], the Michaelis-Menten constant (Km) is 2.3 µM.
For the molecule `C[C@]12CC[C@@H]3c4ccc(OS(=O)(=O)O)cc4CC[C@H]3[C@@H]1CCC2=O` [estrone 3-sulfate], the “transcellular (vectorial) transport, basolateral to apical” value in [3] was “transported transcellularly”; in [3] (listed as [^3H]estrone 3-sulfate), “detected”. Moreover, the “ABCC2-mediated transport in the presence of ATP, enhanced compared to controls” value on ABCC2 [1] is given as 3.1 fold.
As to cholecystokinin-8 sulfate [CCK-8], the Km on ABCC2 [4] was 8.1 µM.

B1: OATP2B1 (Homo sapiens) (protein)
chain: MGPRIGPAGEVPQVPDKETKATMGTENTPGGKASPDPQDVRPSVFHNIKLFVLCHSLLQLAQLMISGYLKSSISTVEKRFGLSSQTSGLLASFNEVGNTALIVFVSYFGSRVHRPRMIGYGAILVALAGLLMTLPHFISEPYRYDNTSPEDMPQDFKASLCLPTTSAPASAPSNGNCSSYTETQHLSVVGIMFVAQTLLGVGGVPIQPFGISYIDDFAHNSNSPLYLGILFAVTMMGPGLAFGLGSLMLRLYVDINQMPEGGISLTIKDPRWVGAWWLGFLIAAGAVALAAIPYFFFPKEMPKEKRELQFRRKVLAVTDSPARKGKDSPSKQSPGESTKKQDGLVQIAPNLTVIQFIKVFPRVLLQTLRHPIFLLVVLSQVCLSSMAAGMATFLPKFLERQFSITASYANLLIGCLSFPSVIVGIVVGGVLVKRLHLGPVGCGALCLLGMLLCLFFSLPLFFIGCSSHQIAGITHQTSAHPGLELSPSCMEACSCPLDGFNPVCDPSTRVEYITPCHAGCSSWVVQDALDNSQVFYTNCSCVVEGNPVLAGSCDSTCSHLVVPFLLLVSLGSALACLTHTPSFMLILRGVKKEDKTLAVGIQFMFLRILAWMPSPVIHGSAIDTTCVHWALSCGRRAVCRYYNNDLLRNRFIGLQFFFKTGSVICFALVLAVLRQQDKEARTKESRSSPAVEQQLLVSGPGKKPEDSRV
notes: expressed in transfected cells; host or cells: MDCKII (canine kidney) ABCC2 single-transfectant, further transfected with pcDNA3.1/Hygro(-)-OATP2B1
For B1, in series [5], the Km came to 3.4 µM. Moreover, in series [6] (other: cell line ABCC2-OATP2B1), the Km was 0.7 ± 0.3 µM and the Vmax is 23.0 ± 2.6 pmol · mg protein^−1 · min^−1.

B2: OATP1B1 (Homo sapiens) (protein)
chain: MDQNQHLNKTAEAQPSENKKTRYCNGLKMFLAALSLSFIAKTLGAIIMKSSIIHIERRFEISSSLVGFIDGSFEIGNLLVIVFVSYFGSKLHRPKLIGIGCFIMGIGGVLTALPHFFMGYYRYSKETNINSSENSTSTLSTCLINQILSLNRASPEIVGKGCLKESGSYMWIYVFMGNMLRGIGETPIVPLGLSYIDDFAKEGHSSLYLGILNAIAMIGPIIGFTLGSLFSKMYVDIGYVDLSTIRITPTDSRWVGAWWLNFLVSGLFSIISSIPFFFLPQTPNKPQKERKASLSLHVLETNDEKDQTANLTNQGKNITKNVTGFFQSFKSILTNPLYVMFVLLTLLQVSSYIGAFTYVFKYVEQQYGQPSSKANILLGVITIPIFASGMFLGGYIIKKFKLNTVGIAKFSCFTAVMSLSFYLLYFFILCENKSVAGLTMTYDGNNPVTSHRDVPLSYCNSDCNCDESQWEPVCGNNGITYISPCLAGCKSSSGNKKPIVFYNCSCLEVTGLQNRNYSAHLGECPRDDACTRKFYFFVAIQVLNLFFSALGGTSHVMLIVKIVQPELKSLALGFHSMVIRALGGILAPIYFGALIDTTCIKWSTNNCGTRGSCRTYNSTSFSRVYLGLSSMLRVSSLVLYIILIYAMKKKYQEKDINASENGSVMDEANLESLNKNKHFVPSAGADSETHC
notes: expressed in transfected cells; host or cells: MDCKII (canine kidney), co-expressing ABCC2
As to B2, in series [6] (other: cell line ABCC2-OATP1B1), the Michaelis-Menten constant (Km) amounted to 2.4 ± 0.9 µM and the Vmax is listed as 43.4 ± 6.7 pmol · mg protein^−1 · min^−1. Also, in series [7], the Km turned out to be 2.4 µM and the Vmax is 41.5 ± 5.2 pmol · mg protein^−1 · min^−1.

Values taken from US20080038728A1, “Quadruple Transformed Cell Line Useful for the Identification of Transport Inhibitors” (priority 2004, published 2008).
